These compounds were tested on HDMEC cells (Human Dermal Microvascular Endothelial Cells) (assay: Detachment of endothelial cells in vitro (HDMEC detachment test)). Details: Endothelial cell, 2 h, 1 μM compound, two hours treatment, plates precoated with fibronectin, vitronectin or gelatin, calcein fluorescence, relative to untreated control, mean of six samples, >=15% regarded as significant, read-out: Percentage of detachment of HDMEC cells induced by 1 μM of compound.
Type: cell-based
Experimental: A test for the determination of the detachment of endothelial cells has been developed in order to select products with respect to their “in vitro” activity. Such test was employed in the present invention. By way of this test, the endothelial cells were inoculated in plates, the bottom of which were covered with at least one binding agent, for example, chosen from gelatin, fibronectin, and vitronectin. The inoculated endothelial cells were then cultured. The cultured endothelial cells were treated with a medium comprising the test compound. The cells were then labeled with a fluorescent substance. The detached cells were removed by washing; and the fluorescence of the remaining cells was counted with a fluorimeter.
This test measures the detachment of endothelial cells cultured on substrata based on at least one binding agent, for example, chosen from fibronectin, vitronectin, and gelatin. Generally, one day after the cells were seeded in plates, which comprised, for example, 96 wells, the culture medium was replaced by a medium, which comprised the test compound in the absence of serum. The same preparation was prepared six times at three different concentrations ([…]) and the control was prepared six times without addition of antivascular product. After the cells were treated for two hours with the test substance, the cells were labeled with calcein AM (1.6 μg/ml) in culture medium supplemented with 0.1% of BSA. The cells that detached were removed by washing with culture medium comprising 0.1% of bovine serum albumin. 100 μl of medium were then added to each well. The fluorescence of the remaining cells was counted with a fluorimeter. The data obtained is expressed with respect to the control (untreated cells).
The evaluation of the detachment of endothelial cells in vitro was determined in the following way: HDMEC cells (Human Dermal Microvascular Endothelial Cells, Promocell, c-122102) were cultured in an ECGM-MV medium which comprised 5% of foetal calf serum, growth factors (EGF 10 ng/ml, hydrocortisone 1 μg/ml, 0.4% growth supplement with heparin) and antibiotics (amphotericin 50 ng/ml, gentamicin 50 μg/ml). For the detachment test, the HDMECs were inoculated at 5000 cells in clear-bottomed 96-well plates (Costar) precoated with fibronectin (10 μg/ml) or vitronectin (1 μg/ml) or gelatin. Twenty four hours later, the culture medium was replaced with ECGM-MV 0.1% BSA medium comprising the products shown. The concentrations tested were 0.1, 0.3 and 1 μM for each product. After treating for two hours, the cells were labeled for one hour with calcein (1.6 μg/ml, Molecular Probes) in ECGM-MV 0.1% BSA medium. The detached cells were subsequently removed by washing with ECGM-MV 0.1% BSA medium; 100 μl of medium was added to each well. The fluorescence of the cells which remained attached to the substratum of the well were counted using a fluorimeter, Spectrafluor Plus (Tecan, excitation 485 nm and emission 535 nm).
A cell detachment effect of greater than or equal to 15% is regarded as significant.

Row | Compound | inhibition at 1 µM [%]
1 | COc1ccc(OC)c(C(=O)/C(Cl)=C/c2ccc(N(C)C)cc2)c1 [Example 3] | 25 to 29
2 | CC/C(=C\c1ccc(N(C)C)cc1)C(=O)c1ccc(OC)c(OC)c1OC [Example 10] | 15
3 | CCN(CC)c1ccc(/C=C(\C)C(=O)c2cc(OC)ccc2OC)cc1 [Example 2] | 20 to 23
4 | CCN(CC)c1ccc(/C=C/C(=O)c2cc(OC)c(OC)c(OC)c2)cc1 [Example 11] | 20
5 | COc1cc(C(=O)/C(Cl)=C/c2ccc(N(C)C)cc2)cc(OC)c1OC [Example 8] | 23 to 43
6 | CCN(CC)c1ccc(/C=C(\C)C(=O)c2ccc(OC)c(OC)c2OC)cc1 [Example 6] | 35 to 41
7 | COc1ccc(OC)c(C(=O)/C(C)=C/c2ccc(N(C)C)cc2)c1 [Example 1] | 23 to 49
8 | COc1ccc(C(=O)/C(Cl)=C/c2ccc(N(C)C)cc2)c(OC)c1OC [Example 7] | 22 to 42
9 | COc1ccc(OC)c(C(=O)/C=C/c2ccc(N(C)C)cc2)c1 [Example 4] | 18 to 19
10 | COc1ccc(C(=O)/C(Br)=C/c2ccc(N(C)C)cc2)c(OC)c1OC [Example 13] | 23 to 34
11 | COc1ccc(C(=O)/C=C/c2ccc(N(C)C)cc2)c(OC)c1OC [Example 14] | 18 to 20
12 | COc1cc(C(=O)/C(C)=C/c2ccc(N(C)C)cc2)cc(OC)c1OC [Example 5] | 15
13 | CCCCNc1ccc(/C=C(\C)C(=O)c2cc(OC)c(OC)c(OC)c2)cc1 [Comparative Example 2, reference compound] | 6
14 | COc1ccc(OC)c(C(=O)/C=C/c2ccc(NC(C)=O)cc2)c1 [Comparative Example 1, reference compound] | 2
15 | CCN(CC)c1ccc(/C=C/C(=O)c2ccc(OC)c(OC)c2OC)cc1 [Example 9] | 19

From US20020143064A1, “Novel use of compounds of the chalcones class” (priority 2000, published 2002)
